# Experimental data taken from ChEMBL document CHEMBL6109155, “Discovery of Phenylacylpiperidine as Novel sEH Inhibitors through Scaffold Hopping of Natural Stilbene” (J Med Chem, 2025).
# Active and inactive are the calls of the source. The rule behind the calls is not given here.
# Key:
# Mus musculus [1] = assay: Anti-inflammatory activity in BALB/c mouse model of carrageenan-induced paw edema at 20 mg/kg, po measured for 0.5 to 6 hrs; type: functional, organism-based; conditions: time 0.5-6 hrs
# Mus musculus [2] = assay: Anti-inflammatory activity in BALB/c mouse model of carrageenan-induced paw edema assessed as inhibition of paw swelling at 20 mg/kg, po measured after 6 hrs relative to control; type: functional
# Mus musculus [3] = assay: Anti-inflammatory activity in BALB/c mouse model of carrageenan-induced paw edema assessed as inhibition of paw swelling at 20 mg/kg, po measured up to 6 hrs relative to control; type: functional
# Mus musculus [4] = assay: Effect on ratio of 5,6-EET to DHET plasma levels in BALB/c mouse model of carrageenan-induced paw edema at 10 mg/kg, po measured after 6 hrs; type: functional, organism-based
# Mus musculus [5] = assay: Anti-inflammatory activity in BALB/c mouse model of carrageenan-induced paw edema assessed as increase in ratio of 8,9-EET to DHET plasma levels at 10 mg/kg, po measured after 6 hrs relative to control; type: functional
# Mus musculus [6] = assay: Anti-inflammatory activity in BALB/c mouse model of carrageenan-induced paw edema assessed as increase in plasma 14,15-EET levels at 10 mg/kg, po measured after 6 hrs relative to control; type: functional
# Rattus norvegicus [7] = assay: Anti-inflammatory activity in Sprague-Dawley rat model of CFA-induced rheumatoid arthritis assessed as improvement in joint tissue structure at 10 mg/kg, po administered daily measured after 19 days by H and E staining based analysis; type: functional, organism-based; conditions: time 19.0 day
# RAW264.7 [8] = assay: Anti-inflammatory activity in LPS-indeced mouse RAW264.7 cells assessed as reduction in TNF-alpha level at 10 uM preincubated for 1 hr followed by LPS addition measured after 24 hrs by ELISA; type: functional, cell-based; conditions: time 25.0 hrs
# RAW264.7 [9] = assay: Anti-inflammatory activity in LPS-indeced mouse RAW264.7 cells assessed as reduction in IL-1beta level at 10 uM preincubated for 1 hr followed by LPS addition measured after 24 hrs by ELISA; type: functional, cell-based
# Rattus norvegicus [10] = assay: Anti-inflammatory activity in Sprague-Dawley rat model of CFA-induced rheumatoid arthritis assessed as decrease in paw redness at 10 mg/kg, po administered daily measured after 7 days; type: functional, organism-based; conditions: time 7.0 day
# Rattus norvegicus [11] = assay: Anti-inflammatory activity in Sprague-Dawley rat model of CFA-induced rheumatoid arthritis assessed as decrease in joint deformity at 10 mg/kg, po administered daily measured after 7 days; type: functional, organism-based; conditions: time 7.0 day
# Rattus norvegicus [12] = assay: Anti-inflammatory activity in Sprague-Dawley rat model of CFA-induced rheumatoid arthritis assessed as decrease in arthritis index at 10 mg/kg, po administered daily measured for 7 to 19 days; type: functional, organism-based; conditions: time 7-19 day
# Rattus norvegicus [13] = assay: Anti-inflammatory activity in Sprague-Dawley rat model of CFA-induced rheumatoid arthritis assessed as improvement in chondrocytes morphology at 10 mg/kg, po administered daily measured after 19 days by H and E staining based analysis; type: functional, organism-based; conditions: time 19.0 day
# Rattus norvegicus [14] = assay: Anti-inflammatory activity in Sprague-Dawley rat model of CFA-induced rheumatoid arthritis assessed as reduction in hyperplasia in synovial tissue at 10 mg/kg, po administered daily measured after 19 days by H and E staining based analysis; type: functional, organism-based; conditions: time 19.0 day
# Rattus norvegicus [15] = assay: Anti-inflammatory activity in Sprague-Dawley rat model of CFA-induced rheumatoid arthritis assessed as increase in ratio of plasma 8,9-EET to DHET levels at 10 mg/kg, po administered daily measured after 19 days relative to control; type: functional; conditions: time 19 day
# Mus musculus [16] = assay: Anti-inflammatory activity in CD-1 mouse model of cerulein-induced acute pancreatitis assessed as decrease in inflammatory response in pancreas at 10 mg/kg, ip drug administered at 30 mins and 2.5 hrs post-first cerulein injection and measured after 6 hrs post-first cerulein injection by H and E staining based analysis; type: functional, organism-based; conditions: time 3.5-5.5 hrs
# Mus musculus [17] = assay: Anti-inflammatory activity in CD-1 mouse model of cerulein-induced acute pancreatitis assessed as decrease in neutrophil infiltration in pancreas at 10 mg/kg, ip drug administered at 30 mins and 2.5 hrs post-first cerulein injection and measured after 6 hrs post-first cerulein injection by H and E staining based analysis; type: functional, organism-based; conditions: time 3.5-5.5 hrs
# Mus musculus [18] = assay: Anti-inflammatory activity in CD-1 mouse model of cerulein-induced acute pancreatitis assessed as decrease in plasma IL-6 level at 10 mg/kg, ip drug administered at 30 mins and 2.5 hrs post-first cerulein injection and measured after 6 hrs post-first cerulein injection; type: functional, organism-based; conditions: time 3.5-5.5 hrs
# Mus musculus [19] = assay: Anti-inflammatory activity in CD-1 mouse model of cerulein-induced acute pancreatitis assessed as increase in ratio of pancreatic EET/DHET level at 10 mg/kg, ip drug administered at 30 mins and 2.5 hrs post-first cerulein injection and measured after 6 hrs post-first cerulein injection (reference value: 23.5 to 41.7 %); type: functional; conditions: time 3.5-5.5 hrs
# Mus musculus [20] = assay: Anti-inflammatory activity in CD-1 mouse model of cerulein-induced acute pancreatitis assessed as increase in ratio of plasma 14,15-EET/DHET level at 10 mg/kg, ip drug administered at 30 mins and 2.5 hrs post-first cerulein injection and measured after 6 hrs post-first cerulein injection (reference value: 69.8 to 77.3 %); type: functional; conditions: time 3.5-5.5 hrs
# Mus musculus [21] = assay: Analgesic effect in BALB/c mouse model of acetic acid-induced writhing assessed as reduction in number of writhing episodes at 20 mg/kg, po pretreated for 1 hr followed by acetic acid treatment and measured after 5 to 35 mins relative to control; type: functional; design: scale not given: the % may be the effect or the level left; conditions: time 65-95 min
# Cytochrome P450 2D6 = Cytochrome P450 2D6 (Homo sapiens, UniProt P10635); assay: Inhibition of CYP2D6 in human liver microsomes preincubated for 10 mins followed by NADPH addition measured after 3.5 mins by LC-MS/MS analysis; type: ADME, Microsome
# Chain of Cytochrome P450 2D6 (P10635 whole entry): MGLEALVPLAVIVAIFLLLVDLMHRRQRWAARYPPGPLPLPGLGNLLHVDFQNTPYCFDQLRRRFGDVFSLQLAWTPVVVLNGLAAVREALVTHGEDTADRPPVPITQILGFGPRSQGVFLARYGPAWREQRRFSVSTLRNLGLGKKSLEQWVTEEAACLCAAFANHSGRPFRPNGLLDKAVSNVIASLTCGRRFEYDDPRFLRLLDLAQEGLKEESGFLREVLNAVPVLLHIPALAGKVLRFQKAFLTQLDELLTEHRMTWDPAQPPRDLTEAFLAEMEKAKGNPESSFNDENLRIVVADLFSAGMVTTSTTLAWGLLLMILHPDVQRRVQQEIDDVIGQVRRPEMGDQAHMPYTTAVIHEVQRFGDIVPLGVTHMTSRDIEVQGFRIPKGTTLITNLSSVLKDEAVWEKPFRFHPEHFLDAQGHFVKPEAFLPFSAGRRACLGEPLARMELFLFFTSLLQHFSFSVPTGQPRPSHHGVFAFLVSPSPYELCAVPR
# hERG = hERG (Homo sapiens, UniProt Q12809); assay: Inhibition of hERG at 10 uM by whole-cell patch-clamp method relative to control; type: toxicity
# Chain of hERG (Q12809 whole entry): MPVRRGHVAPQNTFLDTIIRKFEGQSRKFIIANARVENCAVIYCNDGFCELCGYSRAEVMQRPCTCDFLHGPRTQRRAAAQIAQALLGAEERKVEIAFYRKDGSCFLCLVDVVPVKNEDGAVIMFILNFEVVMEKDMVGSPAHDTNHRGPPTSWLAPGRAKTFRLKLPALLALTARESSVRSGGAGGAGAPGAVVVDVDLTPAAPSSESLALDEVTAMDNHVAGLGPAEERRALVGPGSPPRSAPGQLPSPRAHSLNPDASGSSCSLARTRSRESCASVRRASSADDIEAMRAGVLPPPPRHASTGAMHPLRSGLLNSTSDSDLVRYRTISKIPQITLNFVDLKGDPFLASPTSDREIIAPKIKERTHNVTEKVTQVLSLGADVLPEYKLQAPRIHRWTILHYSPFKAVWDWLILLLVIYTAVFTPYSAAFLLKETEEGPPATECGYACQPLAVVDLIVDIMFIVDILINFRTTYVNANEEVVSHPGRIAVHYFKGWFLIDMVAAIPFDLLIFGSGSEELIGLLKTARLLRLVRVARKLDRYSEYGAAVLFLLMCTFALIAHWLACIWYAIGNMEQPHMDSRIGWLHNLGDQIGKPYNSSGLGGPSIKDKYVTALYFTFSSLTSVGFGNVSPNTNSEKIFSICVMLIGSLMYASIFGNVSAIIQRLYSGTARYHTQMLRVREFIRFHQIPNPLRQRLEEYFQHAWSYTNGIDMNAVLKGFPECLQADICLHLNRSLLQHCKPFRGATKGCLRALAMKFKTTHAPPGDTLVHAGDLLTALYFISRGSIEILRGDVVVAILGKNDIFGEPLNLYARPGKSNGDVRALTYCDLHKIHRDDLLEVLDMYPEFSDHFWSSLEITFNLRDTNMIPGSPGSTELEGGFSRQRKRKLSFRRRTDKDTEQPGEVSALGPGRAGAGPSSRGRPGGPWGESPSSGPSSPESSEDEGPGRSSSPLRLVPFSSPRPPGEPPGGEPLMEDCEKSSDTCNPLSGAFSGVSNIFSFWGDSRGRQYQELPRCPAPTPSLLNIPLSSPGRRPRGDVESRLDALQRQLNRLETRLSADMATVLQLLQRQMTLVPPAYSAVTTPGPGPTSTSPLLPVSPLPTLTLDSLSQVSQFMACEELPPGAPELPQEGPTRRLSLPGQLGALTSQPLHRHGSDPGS
# [22] = Cmax in liver of C57BL/6J mouse at 20 mg/kg, po measured for 24 hrs; type: ADME, organism-based
# [23] = Ratio of AUC (0 to 24 hrs) in liver to plasma in C57BL/6J mouse at 20 mg/kg, po measured for 24 hrs; type: ADME, organism-based; conditions: liver and plasma, read-out: Ratio AUC
# [24] = Cmax in brain of C57BL/6J mouse at 20 mg/kg, po measured for 24 hrs; type: ADME, organism-based
# [25] = Ratio of AUC (0 to 24 hrs) in brain to plasma in C57BL/6J mouse at 20 mg/kg, po measured for 24 hrs; type: ADME, organism-based; conditions: brain and plasma, read-out: Ratio AUC
# [26] = Ratio of AUC (0 to 24 hrs) in kidney to plasma in C57BL/6J mouse at 20 mg/kg, po measured for 24 hrs; type: ADME, organism-based; conditions: kidney and plasma, read-out: Ratio AUC
# [27] = AUC (0 to 24 hrs) in Sprague-Dawley rat at 20 mg/kg, po measured for 24 hrs; type: ADME, organism-based; conditions: in vivo
# [28] = Clearance in Sprague-Dawley rat at 20 mg/kg, po measured for 24 hrs; type: ADME, organism-based; conditions: in vivo
# [29] = Cmax in Sprague-Dawley rat at 5 mg/kg, iv measured for 24 hrs; type: ADME, organism-based; conditions: in vivo
# [30] = AUC (0 to 24 hrs) in Sprague-Dawley rat at 5 mg/kg, iv measured for 24 hrs; type: ADME, organism-based; conditions: in vivo
# [31] = Clearance in Sprague-Dawley rat at 5 mg/kg, iv measured for 24 hrs; type: ADME, organism-based; conditions: in vivo
structure (smiles),measurement,setting,value
COc1cc(CC(=O)N2CCC(NC(=O)NCc3ccc(OC(F)(F)F)cc3)CC2)cc(OC)c1,Activity,Mus musculus [1],Active
same,inhibition in vivo at 20 mg/kg,Mus musculus [2],38.1%
same,inhibition in vivo at 20 mg/kg,Mus musculus [3],44.6%
same,Activity,Mus musculus [4],No effect
same,Activity,Mus musculus [5],355%
same,Activity,Mus musculus [6],128%
same,Activity,Rattus norvegicus [7],Active
same,Activity,RAW264.7 [8],Active
same,Activity,RAW264.7 [9],Active
same,Activity,Rattus norvegicus [10],Active
same,Activity,Rattus norvegicus [11],Active
same,Activity,Rattus norvegicus [12],Active
same,Activity,Rattus norvegicus [13],Active
same,Activity,Rattus norvegicus [14],Active; Mild Hyperplasia Was Observed
same,Activity,Rattus norvegicus [15],203%
same,Activity,Mus musculus [16],Active
same,Activity,Mus musculus [17],Active
same,Activity,Mus musculus [18],Active
same,Activity,Mus musculus [19],311%
same,Activity,Mus musculus [20],905%
same,Activity,Mus musculus [21],42%
same,IC50,Cytochrome P450 2D6,46.8 µM
same,inhibition at 10 µM,hERG,12.5%
same,Cmax,[22],3230 ng/g
same,Kp at 24 h,[23],50.9
same,Cmax,[24],27.9 ng/g
same,Kp at 24 h,[25],0.02
same,Kp at 24 h,[26],32.4
same,AUC(0-t) at 24 h,[27],725 ng·h/mL
same,CL/F,[28],470 mL/min/kg
same,Cmax,[29],3120 ng/mL
same,AUC(0-t) at 24 h,[30],2190 ng·h/mL
same,clearance,[31],38.8 mL/min/kg
